# According to publication PMC9374667 (Communications Biology, 2022):
# Several values for one entry are separate records, joined by “and”; a condition that tells them apart may be missing. Equal values may be shown once.
# Experiments:
# db/db mice [1] = test: Body weight of db/db mice during 35-day treatment; assay type: in vivo; conditions: db/db mice; for Average body weight gain: day 35, mean ± SD; for Body weight gain in 5 weeks: individual mice
# Procedure: (§1) The lean wild type control and the db/db control mice were given equal vehicle volume (0.5% CMC-Na solution). All mice were monitored for food intake, body weight, and fasting blood glucose during the 35-day trial. Glucose tolerance test (GTT) and insulin resistance test (ITT) were performed at 4 and 5 weeks of treatment, respectively. Metabolic analysis was performed at 5 weeks of treatment. At the end of the study, blood samples were taken through the retroorbital venous sinus of mice, fat depots (brown fat, inguinal subcutaneous fat, epididymal fat, perirenal fat and mesenteric fat depot) were dissected, weighed, and immediately frozen in liquid nitrogen and stored at −80 °C until required. Weight of fat depots are expressed in percentage (fat depots weight /bodyweight * 100%).
# db/db mice [2] = test: Weekly fasting glucose levels of db/db mice; assay type: in vivo; conditions: individual mice 1-10, in mmol/L
# Procedure: as §1
structure (smiles),measurement,setting,value
"CC(C)Cc1ccc(C(C)C(=O)[O-])cc1.COc1ccc2cc3[n+](cc2c1OC)CCc1cc2c(cc1-3)OCO2.O.O.O.O [BJ, berberine-ibuprofen]",Body weight,"db/db mice [1]; 75 mg/kg gavage once per day, day 1, individual mice, 75 mg/kg",42 grams and 38 grams and 33 grams and 41 grams and 34 grams and 40 grams
same,Body weight,"db/db mice [1]; 75 mg/kg gavage once per day, day 4, individual mice, 75 mg/kg",44 grams and 40 grams and 36 grams and 41 grams and 39 grams and 42 grams
same,Body weight,"db/db mice [1]; 75 mg/kg gavage once per day, day 7, individual mice, 75 mg/kg",45 grams and 40 grams and 41 grams and 35 grams and 43 grams and 36 grams
same,Body weight,"db/db mice [1]; 75 mg/kg gavage once per day, day 10, individual mice, 75 mg/kg",43 grams and 40 grams and 42 grams and 35 grams and 44 grams and 36 grams
same,Body weight,"db/db mice [1]; 75 mg/kg gavage once per day, day 13, individual mice, 75 mg/kg",45 grams and 42 grams and 43 grams and 35 grams and 37 grams and 41 grams and 44 grams
same,Body weight,"db/db mice [1]; 75 mg/kg gavage once per day, day 16, individual mice, 75 mg/kg",44 grams and 42 grams and 37 grams and 46 grams and 39 grams
same,Body weight,"db/db mice [1]; 75 mg/kg gavage once per day, day 19, individual mice, 75 mg/kg",47 grams and 42 grams and 46 grams and 38 grams and 48 grams and 37 grams and 44 grams and 45 grams and 41 grams
same,Body weight,"db/db mice [1]; 75 mg/kg gavage once per day, day 22, individual mice, 75 mg/kg",49 grams and 44 grams and 48 grams and 39 grams and 38 grams and 46 grams and 47 grams and 42 grams
same,Body weight,"db/db mice [1]; 75 mg/kg gavage once per day, day 25, individual mice, 75 mg/kg",50 grams and 45 grams and 49 grams and 40 grams and 48 grams and 38 grams and 46 grams and 42 grams
same,Body weight,"db/db mice [1]; 75 mg/kg gavage once per day, day 28, individual mice, 75 mg/kg",50 grams and 46 grams and 40 grams and 49 grams and 45 grams and 47 grams and 41 grams
same,Body weight,"db/db mice [1]; 75 mg/kg gavage once per day, day 31, individual mice, 75 mg/kg",53 grams and 47 grams and 52 grams and 40 grams and 50 grams and 41 grams and 43 grams
same,Body weight,"db/db mice [1]; 75 mg/kg gavage once per day, day 34, individual mice, 75 mg/kg",52 grams and 47 grams and 44 grams and 51 grams and 43 grams and 50 grams and 45 grams and 48 grams
same,Average body weight gain,db/db mice [1]; 75 mg/kg gavage once per day,9.4 ± 2.7 g
same,Body weight gain in 5 weeks,"db/db mice [1]; 75 mg/kg gavage once per day, 75 mg/kg",7 grams and 10 grams and 9 grams and 14 grams and 11 grams
same,Body weight,"db/db mice [1]; 150 mg/kg gavage once per day, day 1, individual mice, 150 mg/kg",38 grams and 44 grams
same,Body weight,"db/db mice [1]; 150 mg/kg gavage once per day, day 4, individual mice, 150 mg/kg",39 grams
same,Body weight,"db/db mice [1]; 150 mg/kg gavage once per day, day 7, individual mice, 150 mg/kg",39 grams
same,Body weight,"db/db mice [1]; 150 mg/kg gavage once per day, day 10, individual mice, 150 mg/kg",38 grams
same,Body weight,"db/db mice [1]; 150 mg/kg gavage once per day, day 13, individual mice, 150 mg/kg",40 grams
same,Body weight,"db/db mice [1]; 150 mg/kg gavage once per day, day 16, individual mice, 150 mg/kg",39 grams
same,Body weight,"db/db mice [1]; 150 mg/kg gavage once per day, day 19, individual mice, 150 mg/kg",39 grams
same,Body weight,"db/db mice [1]; 150 mg/kg gavage once per day, day 22, individual mice, 150 mg/kg",37 grams
same,Body weight,"db/db mice [1]; 150 mg/kg gavage once per day, day 25, individual mice, 150 mg/kg",37 grams and 44 grams
same,Body weight,"db/db mice [1]; 150 mg/kg gavage once per day, day 28, individual mice, 150 mg/kg",38 grams and 43 grams
same,Body weight,"db/db mice [1]; 150 mg/kg gavage once per day, day 31, individual mice, 150 mg/kg",40 grams and 46 grams
same,Body weight,"db/db mice [1]; 150 mg/kg gavage once per day, day 34, individual mice, 150 mg/kg",43 grams and 48 grams
same,Average body weight gain,db/db mice [1]; 150 mg/kg gavage once per day,5.2 ± 0.9 g
same,Body weight gain in 5 weeks,"db/db mice [1]; 150 mg/kg gavage once per day, 150 mg/kg",6 grams and 5 grams and 4 grams
same,Body weight compared with vehicle,"db/db mice [1]; 5 weeks, BJ 75 and 150 mg/kg, BBR 150 mg/kg, Ibu 150 mg/kg",lower body weight than the db/db mice treated with the vehicle
same,Weekly fasting glucose levels of db/db mice (Figure 5a),"db/db mice [2]; BJ 75mg/kg, 1st of 6 weekly columns (time not given)",10.4 and 12.5 and 9.4 and 17.8 and 11.6 and 18.6 and 12.1 and 17.5 and 20.6 and 14.4
same,Weekly fasting glucose levels of db/db mice (Figure 5a),"db/db mice [2]; BJ 75mg/kg, 2nd of 6 weekly columns (time not given)",21.7 and 12.2 and 16.6 and 18.3 and 16.2 and 21.2 and 15.0 and 18.5 and 24.4 and 17.9
same,Weekly fasting glucose levels of db/db mice (Figure 5a),"db/db mice [2]; BJ 75mg/kg, 3rd of 6 weekly columns (time not given)",27.0 and 17.1 and 16.6 and 26.0 and 22.1 and 24.6 and 22.7 and 19.1 and 24.8 and 20.1
same,Weekly fasting glucose levels of db/db mice (Figure 5a),"db/db mice [2]; BJ 75mg/kg, 4th of 6 weekly (time not given)",16.0 and 19.4 and 17.3 and 23.1 and 21.0 and 18.7 and 20.0 and 16.7 and 18.3 and 19.6
same,Weekly fasting glucose levels of db/db mice (Figure 5a),"db/db mice [2]; BJ 75mg/kg, 5th of 6 weekly (time not given)",8.5 and 16.1 and 10.1 and 17.8 and 19.9 and 13.5 and 18.2 and 12.3 and 18.1 and 11.2
same,Weekly fasting glucose levels of db/db mice (Figure 5a),"db/db mice [2]; BJ 75mg/kg, 6th of 6 weekly (time not given)",8.3 and 14.2 and 11.5 and 16.0 and 17.3 and 15.9 and 14.1 and 11.0 and 16.7 and 10.7
same,Weekly fasting glucose levels of db/db mice (Figure 5a),"db/db mice [2]; BJ 150mg/kg, 1st of 6 weekly columns (time not given)",19.4 and 13.4 and 14.8 and 9.9 and 15.4 and 23.3 and 12.6
